# Key:
# [1] = molecular target: Sigma non-opioid intracellular receptor 1 (Cavia porcellus, UniProt Q60492); test: Displacement of [3H]-(+)-pentazocine from sigma1 receptor in guinea pig brain cortex membrane incubated for 120 mins measured for 5 mins by scintillation counting method; assay type: cell membranes
# [2] = molecular target: T1, Sigma intracellular receptor 2 (Rattus norvegicus, UniProt Q5U3Y7); test: Displacement of [3H]-di-o-tolylguanidine from sigma2 receptor in rat liver membrane incubated for 120 mins measured for 5 mins by scintillation counting method; assay type: cell membranes
# T1 sequence (Q5U3Y7 whole entry): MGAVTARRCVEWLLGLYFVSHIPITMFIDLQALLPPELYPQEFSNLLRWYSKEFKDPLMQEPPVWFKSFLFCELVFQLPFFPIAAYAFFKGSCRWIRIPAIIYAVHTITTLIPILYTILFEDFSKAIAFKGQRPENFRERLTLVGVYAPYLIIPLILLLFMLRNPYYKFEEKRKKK
# [3] = Displacement of [3H]-(+)-MK-801 from NMDA PCP binding site in pig brain cortex membrane incubated for 120 mins measured for 5 mins by scintillation counting method; assay type: cell membranes, Sus scrofa
# Sequence of Sigma non-opioid intracellular receptor 1 (Q60492 whole entry): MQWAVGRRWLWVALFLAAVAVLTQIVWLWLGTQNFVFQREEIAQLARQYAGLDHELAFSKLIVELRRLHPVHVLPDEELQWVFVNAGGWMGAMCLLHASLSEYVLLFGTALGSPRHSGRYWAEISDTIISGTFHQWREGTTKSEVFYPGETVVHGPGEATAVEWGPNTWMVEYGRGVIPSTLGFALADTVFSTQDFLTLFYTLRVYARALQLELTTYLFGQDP
Compound,Ki [1] [nM],Ki [2] [nM],Ki [3] [nM]
NCCC1CC2OC(Cc3ccccc32)O1 (mixture of isomers),> 1000,> 1000,> 1000
NCCC1CC2OC(Cc3ccccc32)O1 (racemic),> 1000,> 1000,–
CN(C)CCC1CC2OC(Cc3ccccc32)O1 (racemic),> 1000,> 1000,> 1000

# Other lines, results leading:
Ki [1] [nM],Ki [2] [nM],Ki [3] [nM],Compound
782,> 1000,–,c1ccc(CN(CCC2CC3OC(Cc4ccccc43)O2)Cc2ccccc2)cc1 (racemic; 22b)
30,> 1000,> 1000,c1ccc(CNCCC2CC3OC(Cc4ccccc43)O2)cc1 (racemic; 21a)
5.9,153,–,c1ccc(CNCCC2CC3OC(Cc4ccccc43)O2)cc1 (racemic; 21b)
1400,> 1000,> 1000,c1ccc(CN(CCC2CC3OC(Cc4ccccc43)O2)Cc2ccccc2)cc1 (racemic; 22a)
